pEC50: −log10 of the molar value.
Tests used:
[1] = tested on: hematologic tumor cell lines; test: MTS cell proliferation assay, panel of hematologic cancer cell lines; assay type: cell-based; conditions: range over 16 cell lines, FIG. 3; read-out: potency in the cell proliferation assay (EC50)
Protocol: (§1) Cell proliferation was measured using the CellTiter 96 Aqueous Non-Radioactive Cell Proliferation Assay (Promega). The CellTiter 96® AQueous Assay is composed of solutions of a tetrazolium compound [3-(4,5-dimethylthiazol-2-yl)-5-(3-carboxymethoxyphenyl)-2-(4-sulfophenyl)-2H-tetrazolium, inner salt; MTS] and an electron coupling reagent (phenazine methosulfate) PMS. MTS is bioreduced by cells into a formazan product that is soluble in tissue culture medium. The absorbance of the formazan product at 490 nm can be measured directly from assay plates without additional processing. The quantity of formazan product as measured by the amount of 490 nm absorbance is directly proportional to the number of living cells in culture. Cells were seeded into 96-well or 384-well clear plates in a volume of 200 μL (96-well) or 50 μL (384-well) at optimized densities ranging from 1,000 to 40,000 cells per well for 96-well plates or 1,200 to 25,000 cells per well for 384-well plates depending on cell-line. After 4-6 hr recovery, serially diluted compounds in DMSO were added to the cells using (0.1% v/v final DMSO concentration). Cells were then grown at 37° C. in a humidified incubator with 5% CO2 for 72 hr. A 20:1 [3-(4,5-dimethylthiazol-2-yl)-5-(3-carboxymethoxyphenyl)-2-(4-sulfophenyl)-2H-tetrazolium](MTS):phenazine methosulfate (PMS) solution in DPBS was made immediately before use, added to each well, and cells were incubated for 1.5 hr at 37° C. The absorbance at 490 nm was then measured using a platereader. Absorbance values were normalized as percent of control (cells incubated in the presence of 0.1% v/v DMSO). Sigmoidal dose-response curves were plotted using log(inhibitor) vs. response—Variable slope (four parameters) model with a top value constrained to 100% (GraphPad Prism version 6.00 for Windows, GraphPad Software, La Jolla California USA). […] Curves for compounds that reached a plateau were matched exactly to the measurement points. […] To determine potential of compounds of the invention to affect viability of hematological cancers, cell lines representing various tumor types were selected and tested. Human cell lines tested were: MOLM-13 (acute myeloid leukemia (AML)), MV4-11 (AML), U-2932 (ABC-diffuse large B cell lymphoma), U-937 (histiocytic lymphoma), U-266 (multiple myeloma), RPMI-8226 (multiple myeloma), CMK (megakaryoblastic cell line), SU-DHL-4 (GCB-diffuse large B cell lymphoma), KG1 (AML), Mec-1 (chronic B-cell leukemia), MOLM-16 (AML), Jeko (B-cell lymphoma), WSU-DLCL2 (B-cell lymphoma), JJN3 (plasma cell leukemia), SU-DHL-6 (GCB-diffuse large B cell lymphoma), and Z-138 (mantle cell lymphoma). In addition, two murine cell lines were tested: A20 […].

[2] = tested on: P-PDK1; test: Pathway modulation in MV4-11 tumor xenografts, pPDK1; assay type: in vivo, mice; conditions: MV4-11 tumors, 50 mg/kg oral, 8 hrs
Source text: MV4-11 cells propagated in vitro were implanted subcutaneous into the right flank of 9-week old female NCr nu/nu mice. On the day of implant, MV4-11 cells were harvested during log phase growth and resuspended in phosphate buffered saline (PBS) containing 50% Matrigel™ (BD Biosciences) at a concentration of 1×10^8 cells/mL. […] Two weeks after implantation, animals were assigned to individual groups of 3 animals with and average tumor volume of approximately 200 mm^3. […] Eight hours post-dose, full blood volume was collected by cardiac puncture under isoflurane anesthesia and tumors were excised and snapfrozen in liquid nitrogen and stored at −80° C. until further analysis. Tumors were pulverized in liquid nitrogen using a Biopulverizer and split into two sample tubes: one for Western blot analysis and one for analysis of compound levels by LC-MS/MS. […] For MS analysis, tumor samples were homogenized with a Virsonic 100 ultrasonic homogenizer. Each sample was first weighed, and then an appropriate volume of 20:80 methanol:water was added to make a 9 mL/gram sample. Samples were then homogenized on ice, and stored frozen until analysis. Standards were prepared in BALB/c mouse plasma or blank homogenized tumor tissue. Standards and samples were analyzed on a PE Sciex API4000 instrument and compound concentration was quantified and back-calculated to ng compound per g tumor tissue and converted to M concentration assuming 1 g tumor tissue equals 1 mL volume.

[3] = tested on: AKT phosphorylation; test: Pathway modulation in MV4-11 tumor xenografts, pAKT; assay type: in vivo, mice; conditions: MV4-11 tumors, 50 mg/kg oral, 8 hrs
Protocol: (§2) MV4-11 cells propagated in vitro were implanted subcutaneous into the right flank of 9-week old female NCr nu/nu mice. On the day of implant, MV4-11 cells were harvested during log phase growth and resuspended in phosphate buffered saline (PBS) containing 50% Matrigel™ (BD Biosciences) at a concentration of 1×10^8 cells/mL. Xenografts were initiated by subcutaneously implanting 1×10^7 MV-4-11 cells (0.1 mL suspension) into the right flank of each test animal and tumors were monitored as their volumes approached the target range of 175 to 225 mm^3. Two weeks after implantation, animals were assigned to individual groups of 3 animals with and average tumor volume of approximately 200 mm^3. […] Eight hours post-dose, full blood volume was collected by cardiac puncture under isoflurane anesthesia and tumors were excised and snapfrozen in liquid nitrogen and stored at −80° C. until further analysis. Tumors were pulverized in liquid nitrogen using a Biopulverizer and split into two sample tubes: one for Western blot analysis and one for analysis of compound levels by LC-MS/MS. Western blot analysis was performed as described above. […] Standards and samples were analyzed on a PE Sciex API4000 instrument and compound concentration was quantified and back-calculated to ng compound per g tumor tissue and converted to M concentration assuming 1 g tumor tissue equals 1 mL volume.

[4] = Compound concentration in MV4-11 tumors by LC-MS/MS; assay type: in vivo, mice; conditions: 50 mg/kg oral
Protocol: as §2

[5] = tested on: Molm-13; test: MTS cell proliferation assay, Molm-13; assay type: cell-based; conditions: Homo sapiens; Molm-13, 72 hr
Protocol: as §1

[6] = tested on: MV4-11; test: MTS cell proliferation assay, MV4-11; assay type: cell-based, human
Protocol: (§3) Cell proliferation was measured using the CellTiter 96 Aqueous Non-Radioactive Cell Proliferation Assay (Promega). […] MTS is bioreduced by cells into a formazan product that is soluble in tissue culture medium. The absorbance of the formazan product at 490 nm can be measured directly from assay plates without additional processing. The quantity of formazan product as measured by the amount of 490 nm absorbance is directly proportional to the number of living cells in culture. Cells were seeded into 96-well or 384-well clear plates in a volume of 200 μL (96-well) or 50 μL (384-well) at optimized densities ranging from 1,000 to 40,000 cells per well for 96-well plates or 1,200 to 25,000 cells per well for 384-well plates depending on cell-line. After 4-6 hr recovery, serially diluted compounds in DMSO were added to the cells using (0.1% v/v final DMSO concentration). Cells were then grown at 37° C. in a humidified incubator with 5% CO2 for 72 hr. A 20:1 [3-(4,5-dimethylthiazol-2-yl)-5-(3-carboxymethoxyphenyl)-2-(4-sulfophenyl)-2H-tetrazolium](MTS):phenazine methosulfate (PMS) solution in DPBS was made immediately before use, added to each well, and cells were incubated for 1.5 hr at 37° C. The absorbance at 490 nm was then measured using a platereader. Absorbance values were normalized as percent of control (cells incubated in the presence of 0.1% v/v DMSO). Sigmoidal dose-response curves were plotted using log(inhibitor) vs. response—Variable slope (four parameters) model with a top value constrained to 100% (GraphPad Prism version 6.00 for Windows, GraphPad Software, La Jolla California USA). […] To determine potential of compounds of the invention to affect viability of hematological cancers, cell lines representing various tumor types were selected and tested. […] In addition, two murine cell lines were tested: A20 […].

[7] = tested on: U-2932; test: MTS cell proliferation assay, U-2932; assay type: cell-based; conditions: Homo sapiens, U2932; U-2932, 72 hr
Protocol: as §1

[8] = tested on: RPMI-8226; test: MTS cell proliferation assay, RPMI-8226; assay type: cell-based; conditions: Homo sapiens; RPMI-8226, 72 hr
Protocol: as §1

[9] = tested on: Jeko; test: MTS cell proliferation assay, Jeko; assay type: cell-based; conditions: Homo sapiens, 72 hr
Protocol: as §1

[10] = tested on: A20; test: MTS cell proliferation assay, A20; assay type: cell-based, murine; conditions: Mus musculus; A20, 72 hr
Protocol: as §1

[11] = tested on: C1498; test: MTS cell proliferation assay, C1498; assay type: cell-based, murine
Protocol: as §3

[12] = tested on: P-PDK1; test: Western blot, PDK1 phosphorylation in C1498 cells; assay type: cell-based, murine; conditions: C1498
Protocol: (§4) For phosphoprotein analyses, cells were seeded into 10 cm petri dishes (10×10^6 cells/dish) in media supplemented with 10% FBS and penicillin/streptomycin. After cells recovered for 1 hr at 37° C., compounds were added in DMSO (0.1% final) and incubated for 4 or 24 hr at 37° C. Cells were then harvested by centrifugation and washed with cold PBS. Cell pellets were resuspended in cell extraction buffer (Invitrogen) supplemented with 2×Halt™ protease and phosphatase inhibitor cocktail (Thermo Scientific), 2 mM sodium orthovanadate, 10 mM EDTA and 4 mM PMSF. Samples were lysed by sonication and incubated on ice for 30 min. Cell debris was removed by centrifugation and protein concentrations were determined using the BCA Protein Assay Kit (Pierce). The clarified lysate was diluted in LDS sample buffer with reducing agent (Life Technologies). […] Gels were run at 110 V and proteins were transferred to a PVDF membrane. Membranes were blocked in TBS blocking buffer (Li-Cor Biosciences) for 1 hr. Primary antibodies (Cell Signaling, Sant Cruz Biotechnology) were added (1:1,000 dilution) in blocking buffer with 0.1% Tween-20 and 1:20,000 dilution of β-actin antibody and incubated for 14 hr at 4° C. […] Bands were quantitated using ImageJ.

[13] = tested on: P-RSK2; test: Western blot, RSK2 phosphorylation in C1498 cells; assay type: cell-based, murine; conditions: C1498
Protocol: as §4

[14] = tested on: P-AKT; test: Western blot, AKT phosphorylation in A20 cells; assay type: cell-based, murine
Protocol: For phosphoprotein analyses, cells were seeded into 10 cm petri dishes (10×10^6 cells/dish) in media supplemented with 10% FBS and penicillin/streptomycin. After cells recovered for 1 hr at 37° C., compounds were added in DMSO (0.1% final) and incubated for 4 or 24 hr at 37° C. Cells were then harvested by centrifugation and washed with cold PBS. Cell pellets were resuspended in cell extraction buffer (Invitrogen) supplemented with 2×Halt™ protease and phosphatase inhibitor cocktail (Thermo Scientific), 2 mM sodium orthovanadate, 10 mM EDTA and 4 mM PMSF. Samples were lysed by sonication and incubated on ice for 30 min. Cell debris was removed by centrifugation and protein concentrations were determined using the BCA Protein Assay Kit (Pierce). The clarified lysate was diluted in LDS sample buffer with reducing agent (Life Technologies). […] Gels were run at 110 V and proteins were transferred to a PVDF membrane. Membranes were blocked in TBS blocking buffer (Li-Cor Biosciences) for 1 hr. Primary antibodies (Cell Signaling, Sant Cruz Biotechnology) were added (1:1,000 dilution) in blocking buffer with 0.1% Tween-20 and 1:20,000 dilution of β-actin antibody and incubated for 14 hr at 4° C. Blots were washed in TBS-T. Label-conjugated goat anti-rabbit secondary antibody (IRdye® 800CW; Li-Cor Biosciences) was added in blocking buffer with 0.1% Tween-20 and 0.02% SDS and incubated for 1 hr. After washing in TBS-T followed by TBS, membranes were scanned on an Odyssey imaging system (Li-Cor Biosciences). Bands were quantitated using ImageJ.

SMILES: CS(=O)(=O)N1CCN(Cc2cc3nc(-c4cccc5[nH]ncc45)nc(N4CCOCC4)c3s2)CC1 [GDC-0941, pictilisib]
- pEC50 [1]: 5.21 to 7.30
- inhibition of P-PDK1 [2]: 25%
- inhibition of PDK1 in tumors [2]: 45%
- inhibition of P-AKT in tumors [3]: no inhibition
- tumor exposure [4]: 0.4 to 1.4 mM

SMILES: NC1(c2ccc(-c3nc4ccn5c(=O)[nH]nc5c4cc3-c3ccccc3)cc2)CCC1 [MK-2206, reference compound]
- pEC50 [5]: 5.86
- pEC50 ([6]; Homo sapiens, MV4-11, 72 hr, read-out: MTS proliferation assay): 5.89
- plateau of growth inhibition curve ([6]; MV4-11): do not reach a plateau below 20%
- pEC50 [7]: 5.31
- pEC50 [8]: 6.04
- pEC50 [9]: 6.01
- pEC50 [10]: 6.86
- plateau of growth inhibition curve ([11]; C1498): do not reach a plateau below 20%
- pEC50 ([11]; Mus musculus, C1498, 72 hr, read-out: MTS proliferation assay): 6.09
- pEC50 [1]: 4.97 to 7.00
- effect on PDK1 phosphorylation [12]: appears to enhance
- effect on RSK2 phosphorylation [13]: appears to enhance
- P-AKT levels [14]: sensitive

From patent US20240207258A1, “HETEROCYCLIC PDK1 INHIBITORS FOR USE TO TREAT CANCER” (Viracta Therapeutics, Inc., priority 2015, published 2024)
